The SangsterLogP compilation

test: method code SF-AS, from PMID: 43458

Row | Structure (SMILES) | logP
1 | CCCCOC(=O)c1cc(O)c(O)c(O)c1 | 2.41
2 | COC(=O)c1cc(O)c(O)c(O)c1 | 0.86
3 | CCCCCCCCOC(=O)c1cc(O)c(O)c(O)c1 | 3.66
4 | CC(C)COC(=O)c1cc(O)c(O)c(O)c1 | 2.46
5 | CCOC(=O)c1cc(O)c(O)c(O)c1 | 1.3
6 | CCCOC(=O)c1cc(O)c(O)c(O)c1 | 1.8
